Experimental data: PubChem BioAssay AID248 (DTP/NCI, 2004)
Where “and” joins values, the source holds several entries; their conditions need not be identical. Equal entries are not always repeated. Inconclusive results and toxic doses are left out. Cut-off read from the data, not from the text of the source: active = T/C of 150% or more; inactive = T/C below 125%.

Tested on: L1210 leukemia ip in BDF1 mice, survival T/C
Assay: NCI In Vivo Anticancer Drug Screen. Data for tumor model L1210 Leukemia (intraperitoneal) in B6D2F1 (BDF1) mice
Conditions: endpoint: mean survival time, higher = longer survival
Procedure, shortened: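 Value reflects the ratio of survival in compound-treated mice to survival in vehicle-treated controls, with both groups carrying the same transplanted tumor.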

[1] = dose: 100.0 mg/kg/injection, schedule: Q04DX003 (ip), vehicle: Klucel (hydroxypropylcellulose) (HPC)
[2] = dose: 200.0 mg/kg/injection, schedule: Q04DX003 (ip), vehicle: Klucel (hydroxypropylcellulose) (HPC)
[3] = dose: 100.0 mg/kg/injection, schedule: Q01DX009 (ip), vehicle: saline with Tween-80
[4] = dose: 200.0 mg/kg/injection, schedule: Q01DX009 (ip), vehicle: saline with Tween-80
[5] = dose: 400.0 mg/kg/injection, schedule: Q01DX009 (ip), vehicle: saline with Tween-80
[6] = dose: 100.0 mg/kg/injection, schedule: Q01DX009 (ip), vehicle: saline
[7] = dose: 100.0 mg/kg/injection, schedule: Q04DX003 (ip), vehicle: saline with Tween-80
[8] = dose: 200.0 mg/kg/injection, schedule: Q01DX009 (ip), vehicle: saline
[9] = dose: 200.0 mg/kg/injection, schedule: Q04DX003 (ip), vehicle: saline with Tween-80
[10] = dose: 400.0 mg/kg/injection, schedule: Q04DX003 (ip), vehicle: saline with Tween-80
[11] = dose: 100.0 mg/kg/injection, schedule: Q01DX009 (ip), vehicle: Klucel (hydroxypropylcellulose) (HPC)
[12] = dose: 200.0 mg/kg/injection, schedule: Q01DX009 (ip), vehicle: Klucel (hydroxypropylcellulose) (HPC)
[13] = dose: 400.0 mg/kg/injection, schedule: Q01DX009 (ip), vehicle: Klucel (hydroxypropylcellulose) (HPC)

Measured: T/C

O=C(O)c1ccccc1C(=O)OC1CC2CCC1CC2 (stereo not drawn)
inactive: dose: 100.0 mg/kg/injection, schedule: Q01DX001 (ip), vehicle: saline with Tween-80 98 % of control | dose: 200.0 mg/kg/injection, schedule: Q01DX001 (ip), vehicle: saline with Tween-80 104 % of control | dose: 400.0 mg/kg/injection, schedule: Q01DX001 (ip), vehicle: saline with Tween-80 100 % of control

CC(=O)Nc1ccc(S(=O)(=O)N2CC2)cc1
inactive: dose: 50.0 mg/kg/injection, schedule: Q01DX005 (ip), vehicle: saline 102 % of control | dose: 50.0 mg/kg/injection, schedule: Q04DX003 (ip), vehicle: Klucel (hydroxypropylcellulose) (HPC) 91 % of control | dose: 100.0 mg/kg/injection, schedule: Q01DX005 (ip), vehicle: saline 96 % of control | [1] 102 % of control | dose: 200.0 mg/kg/injection, schedule: Q01DX005 (ip), vehicle: saline 102 % of control | [2] 95 % of control

Cc1cc(OC(=O)Nc2cccc(C(F)(F)F)c2)c(C(C)C)cc1Cl
inactive: dose: 100.0 mg/kg/injection, schedule: Q01DX009 (ip), vehicle: gum acacia 87 % of control | dose: 200.0 mg/kg/injection, schedule: Q01DX009 (ip), vehicle: gum acacia 91 % of control | dose: 400.0 mg/kg/injection, schedule: Q01DX009 (ip), vehicle: gum acacia 86 % of control

O=C(O)/C(=C\c1ccccc1[N+](=O)[O-])c1ccccc1Cl
inactive: [3] 106 % of control | [4] 98 % of control | [5] 95 % of control

Nc1cc(Cl)ccc1S(N)(=O)=O
inactive: [6] 92 % of control | [7] 105 % of control | [8] 100 % of control | [9] 105 % of control | dose: 400.0 mg/kg/injection, schedule: Q01DX009 (ip), vehicle: saline 111 % of control | [10] 108 % of control

CCCCCCCCCCCCCCCCCCNC(=O)N1CCCCC1C (stereo not drawn)
inactive: [11] 89 % of control | [12] 96 % of control | [13] 100 % of control

COC(=O)C1CC2(C(=O)OC)CC(C(=O)OC)(CC(C(=O)OC)C2=O)C1=O (stereo not drawn)
inactive: dose: 50.0 mg/kg/injection, schedule: Q04DX002 (ip), vehicle: Klucel (hydroxypropylcellulose) (HPC) 93 % of control | dose: 100.0 mg/kg/injection, schedule: Q04DX002 (ip), vehicle: Klucel (hydroxypropylcellulose) (HPC) 102 % of control | [1] 95 % of control | dose: 200.0 mg/kg/injection, schedule: Q04DX002 (ip), vehicle: Klucel (hydroxypropylcellulose) (HPC) 108 % of control | [2] 89 % of control | dose: 400.0 mg/kg/injection, schedule: Q04DX003 (ip), vehicle: Klucel (hydroxypropylcellulose) (HPC) 92 % of control

NC(=O)N1Cc2ccccc2Cc2ccccc2C1
inactive: [11] 101 % of control | [12] 92 % of control | [13] 95 % of control

CC(=O)c1cc(C)ccc1O
inactive: [1] 93 % of control | [2] 92 % of control

N#CCC(=O)c1ccccc1
inactive: dose: 12.5 mg/kg/injection, schedule: Q01DX009 (ip), vehicle: Klucel (hydroxypropylcellulose) (HPC) 113 % of control | dose: 18.75 mg/kg/injection, schedule: Q04DX003 (ip), vehicle: gum acacia 106 % of control | dose: 25.0 mg/kg/injection, schedule: Q01DX009 (ip), vehicle: Klucel (hydroxypropylcellulose) (HPC) 102 % of control | dose: 37.5 mg/kg/injection, schedule: Q04DX003 (ip), vehicle: gum acacia 108 % of control | dose: 50.0 mg/kg/injection, schedule: Q01DX009 (ip), vehicle: Klucel (hydroxypropylcellulose) (HPC) 104 % of control

CC1=C(C)C(=O)c2c(OC(=O)c3ccccc3)ccc(OC(=O)c3ccccc3)c2C1=O
inactive: dose: 12.5 mg/kg/injection, schedule: Q01DX009 (ip), vehicle: saline 100 % of control | dose: 25.0 mg/kg/injection, schedule: Q01DX009 (ip), vehicle: saline 99 % of control | dose: 50.0 mg/kg/injection, schedule: Q01DX009 (ip), vehicle: saline 92 % of control | dose: 50.0 mg/kg/injection, schedule: Q04DX003 (ip), vehicle: saline 95 % of control | [6] 92 % of control | dose: 100.0 mg/kg/injection, schedule: Q04DX003 (ip), vehicle: saline 98 % of control and 91 % of control | [8] 87 % of control | dose: 200.0 mg/kg/injection, schedule: Q04DX003 (ip), vehicle: saline 90 % of control | dose: 400.0 mg/kg/injection, schedule: Q04DX003 (ip), vehicle: saline 92 % of control and 91 % of control

c1ccc(COC2NCCN2Cc2ccccc2)cc1 (stereo not drawn)
inactive: dose: 100.0 mg/kg/injection, schedule: Q01DX001 (ip), vehicle: saline 98 % of control | dose: 200.0 mg/kg/injection, schedule: Q01DX001 (ip), vehicle: saline 101 % of control | dose: 400.0 mg/kg/injection, schedule: Q01DX001 (ip), vehicle: saline 101 % of control

CC(=O)OC1(C2(OC(C)=O)C=CC(=NS(=O)(=O)c3ccccc3)C=C2)C=CC(=NS(=O)(=O)c2ccccc2)C=C1 (stereo not drawn)
inactive: [3] 100 % of control | [7] 94 % of control | [4] 93 % of control | [9] 90 % of control | [5] 97 % of control | [10] 87 % of control
